Assay: dissolution test, USP apparatus II (paddles), efavirenz released in water
Format: physicochemical
Conditions: 50 mg efavirenz equivalent in capsule with 15% croscarmellose sodium, 37° C., 100 rpm
Method: FIG. 9 is a plot of percent efavirenz released in water as a function of time for spray dried product using solvent and solvent/non-solvent methods in accordance with Example #8.
Initial release refers to the percent of drug released after 15 minutes in accordance with a standard dissolution test method. Extent of release refers to the percent of drug released after 240 minutes in accordance with the same standard dissolution test method.
Preferably these limits are obtained within about 120 minutes, more particularly within about 60 minutes and still more particularly within about 30 minutes. Dissolution profiles can be determined using USP apparatus II (paddles) (VK 7010®, Varian Inc.), with a bath temperature of 37° C. and a paddle speed of 100 rpm for 240 minutes.
3. The dissolution properties of both amorphous compositions were tested and compared to the crystalline drug form. An amount equivalent to 50 mg efavirenz was analyzed. Powders were hand-filled into size 1 hard gelatin capsules (Shinogi Qualicaps) with an additional 15% croscarmellose sodium (Ac-Di-Sol®, FMC BioPolymers). USP apparatus II (paddles) (VK 7010®, Varian Inc.) was used, with a bath temperature of 37° C. and a paddle speed of 100 rpm for 240 minutes. Both amorphous efavirenz compositions achieved faster rate of release and higher maximum aqueous concentration than the crystalline form (FIG. 9, Table 1). […]

With `O=C1Nc2ccc(Cl)cc2[C@@](C#CC2CC2)(C(F)(F)F)O1` [crystalline efavirenz, (S)-6-chloro-4-(cyclopropylethynyl)-1,4-dihydro-4-(trifluoromethyl)-2H-3,1-benzoxazin-2-one] the “EFV released 15 min” value (15 min) was 7% and the “EFV released 240 min” value (240 min) was 13%.

From patent US20070026073A1, “Amorphous efavirenz and the production thereof” (priority 2005, published 2007)
